In series [1] the target is T1, GABA-A receptor; alpha-5/beta-3/gamma-2 (Homo sapiens, UniProt P18507+P28472+P31644).
T1 sequence (P18507 whole entry): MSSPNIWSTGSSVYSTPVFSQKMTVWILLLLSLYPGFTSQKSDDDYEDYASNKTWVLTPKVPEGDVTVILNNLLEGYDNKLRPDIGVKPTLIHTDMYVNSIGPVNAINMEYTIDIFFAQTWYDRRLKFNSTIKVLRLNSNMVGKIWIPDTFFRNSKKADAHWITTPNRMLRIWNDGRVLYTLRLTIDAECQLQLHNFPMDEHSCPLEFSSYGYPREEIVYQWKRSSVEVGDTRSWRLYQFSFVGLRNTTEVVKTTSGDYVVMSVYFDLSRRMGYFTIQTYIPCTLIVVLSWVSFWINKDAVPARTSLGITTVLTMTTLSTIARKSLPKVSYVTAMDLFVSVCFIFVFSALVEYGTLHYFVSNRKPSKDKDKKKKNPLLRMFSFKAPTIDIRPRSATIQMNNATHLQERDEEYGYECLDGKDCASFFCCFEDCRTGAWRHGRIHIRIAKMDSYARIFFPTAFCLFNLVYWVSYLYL
T1 sequence (P28472 whole entry): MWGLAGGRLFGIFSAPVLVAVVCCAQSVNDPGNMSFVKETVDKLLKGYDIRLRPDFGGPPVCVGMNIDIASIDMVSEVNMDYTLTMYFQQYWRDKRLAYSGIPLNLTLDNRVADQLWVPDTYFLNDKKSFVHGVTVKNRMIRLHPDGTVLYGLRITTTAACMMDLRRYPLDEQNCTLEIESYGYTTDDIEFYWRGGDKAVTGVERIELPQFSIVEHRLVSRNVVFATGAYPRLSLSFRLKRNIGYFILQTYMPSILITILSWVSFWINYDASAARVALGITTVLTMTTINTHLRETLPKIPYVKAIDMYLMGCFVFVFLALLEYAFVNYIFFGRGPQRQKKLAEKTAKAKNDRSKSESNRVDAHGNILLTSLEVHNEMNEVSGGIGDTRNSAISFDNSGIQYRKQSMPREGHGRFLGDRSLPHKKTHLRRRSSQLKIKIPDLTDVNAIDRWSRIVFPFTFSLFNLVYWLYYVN
T1 sequence (P31644 whole entry): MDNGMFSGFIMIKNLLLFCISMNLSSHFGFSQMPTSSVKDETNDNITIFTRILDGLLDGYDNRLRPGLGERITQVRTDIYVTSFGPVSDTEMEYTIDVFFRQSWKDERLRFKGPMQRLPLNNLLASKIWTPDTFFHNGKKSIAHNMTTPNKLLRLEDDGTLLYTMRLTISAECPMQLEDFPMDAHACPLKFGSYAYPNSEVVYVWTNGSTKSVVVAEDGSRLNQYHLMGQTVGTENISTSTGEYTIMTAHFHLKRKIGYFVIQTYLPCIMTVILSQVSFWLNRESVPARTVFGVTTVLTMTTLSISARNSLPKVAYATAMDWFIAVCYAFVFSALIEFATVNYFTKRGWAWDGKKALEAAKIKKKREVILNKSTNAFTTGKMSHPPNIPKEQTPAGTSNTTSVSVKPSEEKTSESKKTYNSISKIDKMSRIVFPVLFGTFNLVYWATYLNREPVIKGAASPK
Description: Binding affinity to GABAA alpha-5-beta-3-gamma-2 receptor

Series [2] concerns Liver microsomes. Conditions: human.
Description: Clearance in human liver microsomes
The next series in a line: in vitro. Conditions: PAMPA. Background: In PAMPA a lipid-coated filter parts donor from acceptor wells.
Series [3] relates to Liver microsomes. Conditions: rat.
Description: Clearance in rat liver microsomes
Series [4] is described as follows: physchem.
Series [5] in a line: physchem. Particulars: buffer, pH 7.4.
Description: Lipophilicity, log Dof the compound at pH 7.4
For series [6], the system named is Rattus norvegicus. Put plainly: Inhibition of scopolamine-induced cognitive deficit in Wistar rat at 100 mg/kg, ip by passive avoidance test. More on the design: dose 100 mg/kg. Format: functional, organism-based.
The test system of series [7] is Rattus norvegicus. Put plainly: Inhibition of scopolamine-induced cognitive deficit in Wistar rat at 3 mg/kg, ip by passive avoidance test. More on the design: dose 3 mg/kg. In kind it is functional, organism-based.

The pKi is −log10 of the Ki, conventionally taken in molar units. Higher therefore signals a low Ki. Broadly, the Papp is the rate of passage across a membrane or cell layer, normalised by area and donor concentration. The low end stands for slow passage, the high end for fast passage. What is called solubility is how much of the substance goes into solution per volume. Low readings indicate little dissolved substance, high ones much dissolved substance. Broadly, the logD is lipophilicity at a set pH, counting ionised and neutral species.

pKi: −log10 of the molar value. Values after ≈ are worked out from the molar mass of the structure shown. Active and inactive are the calls of the source. The rule behind the calls is not given here.

Description for in vitro: Membrane permeability by PAMPA

In the case of `CCOC(=O)c1ncn2c1Cn1ncnc1-c1cc(NC(=O)C(C)C)ccc1-2`, the pKi in series [1] was 8.19.

`Cc1cn2c(n1)-c1cc(Br)ccc1-n1cnc(C)c1C2` had a pKi in series [1] of 6.92.

As to `c1ccc2c(c1)-c1ncnn1Cc1cncn1-2`, the results for the CL with Liver microsomes [2] and with Liver microsomes [3] were 8 mL/min/mg and 4 mL/min/mg, respectively. The same molecule registered a Papp in “in vitro” of 2.87 ×10⁻⁶ cm/s. In series [1], this molecule had a negative logarithm of the Ki (pKi) of 8.19. The solubility in “physchem [4]” was 231 µg/mL (≈ 1030 µM). The pH-dependent lipophilicity (logD) in the series “physchem [5]” was found to be 0.73.

The molecule `Clc1ncn2c1Cn1cnnc1-c1cc(Br)ccc1-2` had a negative logarithm of the Ki (pKi) in series [1] of 7.56.

In turn, `CCOC(=O)c1ncn2c1Cc1cnc(C3CC3)nc1-c1cc(F)ccc1-2` showed a pKi in series [1] of 8.11. Against the preceding molecule, the pKi is 0.55 log units higher.

`Cc1ncn2c1Cn1c(C)cnc1-c1cc(Br)ccc1-2`: in series [1], the negative-log Ki (pKi) is 7.93. This pKi and that of the molecule before are within 0.2 log units of each other.

`CCOC(=O)c1ncn2c1Cn1ncnc1-c1cc(Br)ccc1-2` gave a negative-log Ki (pKi) in series [1] of 9.52.

As for `O=C(c1ncn2c1Cn1nccc1-c1ccccc1-2)C1CC1`, the negative logarithm of the Ki (pKi) in series [1] is 9.00. This pKi lies 0.52 log units lower than the previous one.

With `Cc1ncn2c1Cn1nccc1-c1cc(Br)ccc1-2`, the negative-log Ki (pKi) in series [1] is 7.31.

Regarding `C#Cc1ccc2c(c1)-c1nc(C)ncc1Cc1c(C(=O)OCC)ncn1-2`, the CL with Liver microsomes [2] came to 8 mL/min/mg. In the series “in vitro”, the apparent permeability coefficient (Papp) was determined as 2.78 ×10⁻⁶ cm/s. The molecule also showed a negative logarithm of the Ki (pKi) in series [1] of 8.09. The solubility in the series “physchem [4]” was found to be 10 µg/mL (≈ 29 µM). The same molecule displayed a logD in “physchem [5]” of 2.68.

In turn, `C#Cc1ccc2c(c1)-c1ncnn1Cc1c(C(=O)OCC)ncn1-2` had a pKi in series [1] of 9.22.

With `CCOC(=O)c1ncn2c1Cn1ncnc1-c1cc(OC)ccc1-2`, the negative logarithm of the Ki (pKi) in series [1] was 9.70.

In the case of `CCOC(=O)c1ncn2c1Cn1cnnc1-c1cc(F)ccc1-2`, the pKi in series [1] is 8.77.

Molecule `CCOC(=O)c1ncn2c1Cc1cnc(Cc3ccc(OC)cc3)nc1-c1ccccc1-2` gave a pKi in series [1] of 7.90.

For `CCOC(=O)c1ncn2c1Cn1ncnc1-c1cc(Cl)ccc1-2`, the Papp in the series “in vitro” worked out at 5.59 ×10⁻⁶ cm/s. The molecule also showed a pKi in series [1] of 9.70. In the series “physchem [4]”, the solubility is 15 µg/mL (≈ 45.5 µM). For the same molecule, in “physchem [5]”, the log distribution coefficient (logD) is 1.83.

As to `CCOC(=O)c1ncn2c1Cn1cnnc1-c1cc(C)ccc1-2`, the negative-log Ki (pKi) in series [1] was 8.68.

In the case of `CCOC(=O)c1ncn2c1Cc1cnc(-c3ccccc3)nc1-c1ccccc1-2`, the pKi in series [1] is 6.77.

In turn, `CCOC(=O)c1ncn2c1Cc1cnc(C)nc1-c1ccccc1-2` had a negative logarithm of the Ki (pKi) in series [1] of 8.42.

Turning to `CCOC(=O)c1cn2c(n1)-c1cc(Br)ccc1-n1cnc(C)c1C2`, the pKi in series [1] is 8.27. This pKi and that of the molecule before are within 0.2 log units of each other.

For `Clc1ncn2c1Cc1cncnc1-c1ccccc1-2`, the negative-log Ki (pKi) in series [1] was 7.81.

`CCOC(=O)c1ncn2c1Cn1c(Cc3ccccc3)nnc1-c1cc(Br)ccc1-2` had a pKi in series [1] of 7.72.

Take `CCOC(=O)c1ncn2c1Cn1ncnc1-c1ccccc1-2`: in series [1], the pKi was 9.70. Against the preceding molecule, the pKi is 1.98 log units higher.

In turn, `CCOC(=O)c1ncn2c1Cn1c(-c3ccccc3)nnc1-c1cc(OC)ccc1-2` had a negative logarithm of the Ki (pKi) in series [1] of 7.27.

For the molecule `CCOC(=O)c1ncn2c1Cc1cnc(C)nc1-c1cc(Br)ccc1-2`, the CL in the series on Liver microsomes [2] was 4 mL/min/mg. The same molecule showed an apparent permeability (Papp) in “in vitro” of 3.6 ×10⁻⁶ cm/s. Further, in the series with Rattus norvegicus [6], the inhibition entry was “Active”. The molecule further gave a pKi in series [1] of 7.90. The same molecule returned a solubility in “physchem [4]” of 20 µg/mL (≈ 50.1 µM). In the series “physchem [5]”, this molecule had a pH-dependent lipophilicity (logD) of 2.68.

On to `Cc1ncn2c1Cn1cnnc1-c1cc(Br)ccc1-2`, for which the negative-log Ki (pKi) in series [1] is 6.82.

Regarding `CCOC(=O)c1ncn2c1Cn1c(C)nnc1-c1cc(OC)ccc1-2`, the negative-log Ki (pKi) in series [1] was 7.84.

In series [1], `CCOC(=O)c1ncn2c1Cc1cnc(C(C)C)nc1-c1cc(F)ccc1-2` gave a negative logarithm of the Ki (pKi) of 7.95. The pKi values of the last two molecules are within 0.2 log units of each other.

For `CCOC(=O)c1ncn2c1Cc1cncnc1-c1cc(Br)ccc1-2`, the pKi in series [1] is 7.69.

In turn, `Cc1ncn2c1Cn1ccnc1-c1cc(Br)ccc1-2` showed a negative logarithm of the Ki (pKi) in series [1] of 8.18.

In the case of `Clc1ncn2c1Cc1cncnc1-c1cc(Br)ccc1-2`, the pKi in series [1] was 6.87.

On to `Cc1ncc2c(n1)-c1ccccc1-n1cnc(Cl)c1C2`, for which the pKi in series [1] was 7.81.

As for `CCOC(=O)c1ncn2c1Cn1cnnc1-c1cc(Br)ccc1-2`, in series [1], the pKi was 9.22.

Take `CCOC(=O)c1ncn2c1Cn1cnnc1-c1ccccc1-2`: in series [1], the pKi was 9.10.

In the case of `CCOC(=O)c1ncn2c1Cn1cnnc1-c1cc(Cl)ccc1-2`, the pKi in series [1] was 8.92.

`CCOC(=O)c1ncn2c1Cn1ncnc1-c1cc(C)ccc1-2` gave a pKi in series [1] of 9.30.

`c1ccc2c(c1)-c1ncncc1Cc1cncn1-2` gave a pKi in series [1] of 6.39.

In turn, `CCCc1ncc2c(n1)-c1cc(F)ccc1-n1cnc(C(=O)OCC)c1C2` showed a negative-log Ki (pKi) in series [1] of 8.10.

Consider `CCOC(=O)c1ncn2c1Cc1cnc(C3CC3)nc1-c1ccccc1-2`, for which, in series [1], the pKi is 8.12.

In series [1], `Cc1ncc2c(n1)-c1cc(Br)ccc1-n1cnc(Cl)c1C2` showed a pKi of 7.21.

Molecule `CCOC(=O)c1ncn2c1Cc1cnc(C(C)C)nc1-c1ccccc1-2` gave a pKi in series [1] of 8.05.

In series [1], `Cc1ncn2c1Cn1cc(CN3CCCC3=O)nc1-c1cc(Br)ccc1-2` gave a pKi of 8.80.

`Cc1ncn2c1Cn1cc(CO)nc1-c1cc(Br)ccc1-2` had a negative logarithm of the Ki (pKi) in series [1] of 8.09.

On to `CCOC(=O)c1ncn2c1Cn1cnnc1-c1cc(OC)ccc1-2`, for which the negative-log Ki (pKi) in series [1] was 8.85. Further, the inhibition entry in the series with Rattus norvegicus [7] is “Active”.

`C#Cc1ccc2c(c1)-c1nncn1Cc1c(Cl)ncn1-2` gave a pKi in series [1] of 7.47.

For the molecule `CCOC(=O)c1ncn2c1Cn1ncnc1-c1cc(OC(F)(F)F)ccc1-2`, in series [1], the negative logarithm of the Ki (pKi) is 9.10.

For `CCOc1ncn2c1Cn1nccc1-c1ccccc1-2`, the negative logarithm of the Ki (pKi) in series [1] was 9.70.

Turning to `CCOC(=O)c1ncn2c1Cn1c(Cc3ccccc3)nnc1-c1cc(OC)ccc1-2`, the negative logarithm of the Ki (pKi) in series [1] is 7.64.

`Clc1ncn2c1Cn1nccc1-c1ccccc1-2` showed a negative logarithm of the Ki (pKi) in series [1] of 8.70.

For `N#Cc1ccc2c(c1)-c1nncn1Cc1c(Cl)ncn1-2`, the pKi in series [1] is 7.60.

`CCOC(=O)c1ncn2c1Cc1cncnc1-c1ccccc1-2` gave a negative logarithm of the Ki (pKi) in series [1] of 8.43.

`C#Cc1ccc2c(c1)-c1nc(C)ncc1Cc1c(Cl)ncn1-2` showed a negative logarithm of the Ki (pKi) in series [1] of 6.88.

Regarding `CCOC(=O)c1ncn2c1Cn1ncnc1-c1cc(C3CC3)ccc1-2`, the pKi in series [1] is 9.22.

In turn, `CCOC(=O)c1ncn2c1Cn1cnnc1-c1cc(O)ccc1-2` gave a negative logarithm of the Ki (pKi) in series [1] of 9.22.

Regarding `CCOc1ncn2c1Cn1nccc1-c1cc(Cl)ccc1-2`, the pKi in series [1] was 8.85.

In series [1], `CCCc1ncc2c(n1)-c1ccccc1-n1cnc(C(=O)OCC)c1C2` showed a pKi of 8.26.

With `C#Cc1ccc2c(c1)-c1nncn1Cc1c(C(=O)OCC)ncn1-2`, in series [1], the pKi was 8.64.

As for `C#Cc1ncn2c1Cn1cnnc1-c1cc(Br)ccc1-2`, the pKi in series [1] was 8.11.

Take `CC(C)C(=O)c1ncn2c1Cn1cnnc1-c1cc(Br)ccc1-2`: the negative-log Ki (pKi) in series [1] is 7.26.

Take `Brc1ccc2c(c1)-c1nncn1Cc1c(I)ncn1-2`: the pKi in series [1] is 8.11.

In series [1], `Cc1ncn2c1Cn1nccc1-c1ccccc1-2` gave a pKi of 8.52.

`CCOC(=O)c1ncn2c1Cc1cnc(C)nc1-c1cc(F)ccc1-2`: in series [1], the pKi is 8.34.

The values are drawn from ChEMBL document CHEMBL1156033, “Discovery of the imidazo[1,5-a][1,2,4]-triazolo[1,5-d][1,4]benzodiazepine scaffold as a novel, potent and selective GABA(A) alpha5 inverse agonist series” (Bioorg Med Chem Lett, 2009).
